Assay results from patent US20100105647A1 (priority 2007, published 2010).

System: Alternaria brassicicola
Experiment: Test of Preventive Effect on Japanese Radish Alternaria Leaf Spot
Type: in vivo
Settings: Japanese radish (cultivar: Wase 40-nichi), foliage application 500 ppm, 1 day high humidity at 24° C. plus 3 days greenhouse
Method: The controlling effect was evaluated by visually observing the area of lesion spots on each of test plants at the time of investigation and comparing the area of lesion spots on a plant treated with the present compound with that on an untreated plant.
Test of Preventive Effect on Japanese Radish Alternaria Leaf Spot (Alternaria brassicicola)
Each of plastic pots was filled with sandy loam and sown with Japanese radish (cultivar: Wase 40-nichi), followed by growing in a greenhouse for 5 days. Each of the present compounds 1-19, 21-40 and 41 was formulated into a flowable formulation according to Formulation Example 6. The flowable formulation was diluted to a predetermined concentration (500 ppm) with water, and foliage application of the dilution was carried out so that the dilution adhered sufficiently to the surfaces of leaves of the Japanese radish. After the foliage application, the plant was air-dried and then inoculated by spraying a water suspension of spores of Alternaria brassicicola. After the inoculation, the plant was held under high humidity conditions at 24° C. for 1 day and held in a greenhouse for 3 days, and then the area of lesion spots was investigated.

C#CCOc1c(F)cc(C(=O)NCC2=CCCCC2)cc1F [compound 18]
area of lesion spots on the treated plant relative to that on an untreated plant: ≤ 30%
